Source: BindingDB's records for doi:10.1016/j.bmcl.2004.11.051 (Merck Frosst Centre For Therapeutic Research, 2005)

Columns and labels:
[1] = biological target: Prostaglandin E2 receptor EP2 subtype (Homo sapiens, UniProt P43116); experiment: Binding affinity for human prostanoid EP2 receptor
[2] = biological target: T1, Prostaglandin E2 receptor EP3 subtype (Homo sapiens, UniProt P43115); experiment: Binding affinity for human prostanoid EP3 receptor
T1 sequence (P43115 whole entry): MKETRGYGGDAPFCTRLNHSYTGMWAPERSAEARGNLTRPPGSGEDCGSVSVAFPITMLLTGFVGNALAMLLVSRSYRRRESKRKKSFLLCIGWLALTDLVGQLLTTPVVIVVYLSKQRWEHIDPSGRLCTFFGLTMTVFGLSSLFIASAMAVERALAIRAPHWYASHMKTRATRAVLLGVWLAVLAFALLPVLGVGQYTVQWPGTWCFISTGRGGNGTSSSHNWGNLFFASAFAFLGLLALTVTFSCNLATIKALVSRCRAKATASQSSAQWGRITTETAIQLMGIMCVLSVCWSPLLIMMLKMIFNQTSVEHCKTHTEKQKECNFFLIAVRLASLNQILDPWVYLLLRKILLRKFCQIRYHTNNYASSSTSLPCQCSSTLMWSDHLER

[3] = biological target: Prostaglandin E2 receptor EP4 subtype (Homo sapiens, UniProt P35408); experiment: Binding affinity for human prostanoid EP4 receptor
Chain of Prostaglandin E2 receptor EP4 subtype (P35408 whole entry): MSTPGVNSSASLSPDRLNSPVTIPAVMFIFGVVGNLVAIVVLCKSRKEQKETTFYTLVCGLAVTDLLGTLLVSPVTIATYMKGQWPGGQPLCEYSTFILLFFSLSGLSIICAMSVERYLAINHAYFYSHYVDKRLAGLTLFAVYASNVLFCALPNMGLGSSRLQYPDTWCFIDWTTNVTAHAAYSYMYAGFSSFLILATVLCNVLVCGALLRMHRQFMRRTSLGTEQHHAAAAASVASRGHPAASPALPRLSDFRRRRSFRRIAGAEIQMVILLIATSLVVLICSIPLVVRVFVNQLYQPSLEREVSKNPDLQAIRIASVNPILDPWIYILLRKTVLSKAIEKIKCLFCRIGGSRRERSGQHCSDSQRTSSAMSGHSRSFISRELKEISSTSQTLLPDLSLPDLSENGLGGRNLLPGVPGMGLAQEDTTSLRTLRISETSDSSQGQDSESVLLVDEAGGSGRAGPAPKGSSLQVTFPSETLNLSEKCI

Chain of Prostaglandin E2 receptor EP2 subtype (P43116 whole entry): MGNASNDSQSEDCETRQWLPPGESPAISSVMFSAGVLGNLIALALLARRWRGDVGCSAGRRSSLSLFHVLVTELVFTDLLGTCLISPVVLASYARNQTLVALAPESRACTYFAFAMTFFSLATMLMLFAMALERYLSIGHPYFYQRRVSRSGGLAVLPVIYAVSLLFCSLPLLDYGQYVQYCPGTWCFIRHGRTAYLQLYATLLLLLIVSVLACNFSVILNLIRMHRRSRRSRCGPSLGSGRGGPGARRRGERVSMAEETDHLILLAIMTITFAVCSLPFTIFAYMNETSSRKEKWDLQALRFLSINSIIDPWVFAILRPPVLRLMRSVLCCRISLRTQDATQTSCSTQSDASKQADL

SMILES: Cc1cccc(C/C=C/c2ccccc2/C=C/C(=O)O)c1OCc1ccccc1
- Ki [1]: 860 nM
- Ki [2]: 9 nM
- Ki [3]: 2000 nM
